How the values were obtained:
CB1 receptor = target: T1, CB1 receptor (Rattus norvegicus, UniProt P20272); test: CB1 binding procedure, displacement of [3H]CP 55,940 from rat whole-brain P2 membranes; settings: for Ki: Table 6, read-out: CB1 KI
T1 construct: whole brain was homogenized and centrifuged; from tissue; host or cells: whole brain of male Sprague-Dawley rats, P2 membrane fraction
Experimental: Male ICR mice (25-32 g), obtained from Harlan (Dublin, Va.), were housed in groups of five. All animals were kept in a temperature-controlled (20-22° C.) environment with a 12-hour light-dark cycle (lights on at 7 a.m.). Separate mice were used for testing each drug dose in the in vivo behavioral procedures. Brain tissue for binding studies was obtained from male Sprague-Dawley rats (150-200 g) purchased from Harlan Laboratories (Dublin, Va.).
The methods used for tissue preparation and binding have been described previously (Compton et al., 1993) and are similar to those described by Devane et al. (1988). All assays, as described briefly below, were performed in triplicate, and the results represent the combined data from three to six individual experiments.
Following decapitation and rapid removal of the brain, whole brain was homogenized and centrifuged. The resulting pellet was termed P1. The supernatant was saved and combined with the two subsequent supernatants obtained from washing of the P1 pellet. The combined supernatant fractions were centrifuged, resulting in the P2 pellet. After further incubation and centrifuging, this pellet was resuspended in assay buffer to a protein concentration of approximately 2 mg/ml. The membrane preparation was quickly frozen in a bath solution of dry ice and 2-methylbutane (Sigma Chemical Co., St. Louis, Mo.), then stored at −80° C. for no more than 2 weeks. Prior to performing a binding assay an aliquot of frozen membrane was rapidly thawed and protein values determined by the method of Bradford (1976).
Binding was initiated by the addition of 150•g of P2 membrane to test tubes containing 1 nM of [^3H] CP 55,940 (79 Ci/mmol) and a sufficient quantity of buffer to bring the total incubation volume to 1 ml. […] Following incubation at 30° C. for 1 hr, binding was terminated by addition of ice cold buffer and vacuum filtration through pretreated filters in a 12-well sampling manifold (Millipore, Bedford, Mass.). After washing, filters were placed into plastic scintillation vials (Packard, Downer Grove, Ill.) and shaken. The quantity of radioactivity present was determined by liquid scintillation spectrometry.
(§1) In addition, multiple linear regression was used to calculate the overall degree of relationship between CB1 binding affinity and potency in the mouse measures for all active cannabinoids. […] Ki values for CB1 and CB2 binding were obtained from Scatchard displacement analysis as determined via EBDA program of the KELL software package (Biosoft, Milltown, N.J.).

CB2 receptor = target: T2, CB2 receptor (Homo sapiens, UniProt P34972); test: CB2 binding procedure, displacement of [3H]CP-55,940 from membranes of transfected CHO cells; settings: for Ki: Table 6, read-out: CB2 KI; for CB1/CB2: ratio of CB1 Ki to CB2 Ki
T2 construct: expressed in transfected cells
T2 sequence (P34972 whole entry): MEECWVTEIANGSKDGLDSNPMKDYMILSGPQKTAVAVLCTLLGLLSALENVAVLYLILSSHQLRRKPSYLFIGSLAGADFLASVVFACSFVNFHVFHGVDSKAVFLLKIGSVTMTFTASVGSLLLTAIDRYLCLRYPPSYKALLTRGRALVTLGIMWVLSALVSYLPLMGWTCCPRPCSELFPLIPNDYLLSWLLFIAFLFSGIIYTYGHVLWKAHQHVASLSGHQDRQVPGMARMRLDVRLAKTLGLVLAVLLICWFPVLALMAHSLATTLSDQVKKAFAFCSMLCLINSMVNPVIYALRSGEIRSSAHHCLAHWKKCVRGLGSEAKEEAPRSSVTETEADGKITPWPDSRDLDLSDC
Experimental: Membranes for CB2 binding were obtained from CHO cells. The transfected cell line was maintained in Dublecco's Modified Eagle Medium (Gibco BRL, Grand Island, N.Y.) with 10% fetal clone II (HyClone Laboratories, Inc., Logan, Utah) plus 0.3 to 0.5 mg/ml G418 (to maintain selective pressure) under 5% CO2 at 37% C. Cells were harvested with 1 mM EDTA in phosphate-buffered saline and were centrifuged at 1000×g for 5 min at 4% C. The supernatant was saved and the P1 pellet was resuspended in centrifugation buffer. Homogenization and centrifugation were repeated twice and the combined supernatant fractions were centrifuged at 40,000×g for 30 min at 4% C. The P2 pellet was resuspended in centrifugation buffer 2 (Tris HCl, 50 mM; EDTA, 1 mM; and MgCl2, 3 mM, pH 7.4) to a protein concentration of approximately 2 mg/ml. Protein concentrations were determined by the method of Bradford (1976) using Bio-Rad Protein Assay (Bio-Rad, Richmond, Calif.) and BSA standards (fatty acid free, Sigma Chemical Co., St. Louis, Mo.). The membrane preparation was divided into amounts convenient for binding assays and frozen rapidly in dry ice and stored at −80% C.
Binding was initiated by the addition of 50•g of quickly thawed P2 membranes to test tubes containing [^3H]CP-55,940 (final reaction concentration 0.5 nM), an appropriate concentration of unlabeled CP-55,940 or test drug, and sufficient quantity of assay buffer (50 mM Tris-HCl, 1 mM EDTA, 3 mM MgCl2, 5 mg/ml bovine serum albumin, pH 7.4) to bring the total incubation volume to 0.5 ml. Concentration of [^3H]CP-55,940 in saturation studies ranged from 50 to 10,000 pM. […] CP-55,940 and all cannabinoid analogs were-prepared by suspension in assay buffer from a 1 mg/ml ethanolic stock without evaporation of the ethanol (final concentration of no more than 0.4%). In competition studies, analog concentrations ranged from 0.1 nM to 10•M. After incubation at […] for 1 hr, binding was terminated by the addition of 2 ml of ice-cold wash buffer (50 mM Tris-HCl and 1 mg/ml BSA) and vacuum filtration through pre-treated filters in a 12-well sampling manifold (Millipore, Bedford, Mass.). Reaction vessels were washed once with 2 ml of ice-cold wash buffer. Filters were placed into 7-ml plastic scintillation vials (RPI Corp., Mount Prospect, Ill.) with 4 ml of Budget-Solve (RPI Corp.). After shaking for 30 min, the radioactivity present was determined by liquid scintillation spectrometry. Three reaction vessels were used for each drug concentration in each assay. The results represent the combined data of three independent experiments. All assays were performed in siliconized test tubes, which were prepared by air drying (12 hr) inverted borosilicate tubes after two rinses with a 0.1% solution of AquaSil (Pierce, Rockford, Ill.). The GF/C glass-fiber filters (2.4 cm, Baxter, McGaw Park, Ill.) were pre-treated in a 0.1% solution of pH 7.4 polyethylenimine (Sigma Chemical Co.) for at least 6 hr.
as §1

T1 sequence (P20272 whole entry): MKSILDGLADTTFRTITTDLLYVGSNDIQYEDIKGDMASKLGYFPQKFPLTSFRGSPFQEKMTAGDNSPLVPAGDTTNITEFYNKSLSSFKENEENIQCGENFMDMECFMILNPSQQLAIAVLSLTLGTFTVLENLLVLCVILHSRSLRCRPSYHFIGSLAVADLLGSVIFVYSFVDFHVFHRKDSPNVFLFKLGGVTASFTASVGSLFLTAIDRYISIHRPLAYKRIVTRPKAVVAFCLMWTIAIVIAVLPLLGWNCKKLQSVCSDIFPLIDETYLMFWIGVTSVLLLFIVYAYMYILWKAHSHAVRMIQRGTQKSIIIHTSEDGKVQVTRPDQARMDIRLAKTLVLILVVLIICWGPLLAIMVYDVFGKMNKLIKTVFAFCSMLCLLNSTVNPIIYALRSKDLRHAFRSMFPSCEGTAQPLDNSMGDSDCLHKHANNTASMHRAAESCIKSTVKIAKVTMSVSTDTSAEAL

**Q.** Which results are given for CCCCCCC(C)(C)c1cc(OC)c(C2(O)CCC[C@@H](C)C2)c(OC)c1 (stereo in doubt) [compound 2137, 1-[4-(1,1-Dimethyl-heptyl)-2,6-dimethoxy-phenyl]-3-methyl-cyclohexanol]?
**A.** Ki (CB1 receptor): 2.67 ± 0.145 µM; Ki (CB2 receptor): 0.011 ± 0.00218 µM

**Q.** What does the source list for CCCCCCC(C)(C)c1cc(OC)c(C2(O)CC(=O)CC(C)C2)c(OC)c1 (stereo not drawn) [O-2123, 3-[4-(1,1-Dimethyl-heptyl)-2,6-dimethoxy-phenyl]-3-hydroxy-5-methyl-cyclohexanone]?
**A.** Ki (CB1 receptor): 7.33 ± 0.117 µM; CB1/CB2 (CB2 receptor): 14

**Q.** How did the CB1/CB2 (CB2 receptor) turn out when CCCCCCC(C)(C)c1cc(OC)c(C2(O)CCC(O)CC2)c(OC)c1 (single isomer, unassigned) [O-2116A, 1-[4-(1,1-Dimethyl-heptyl)-2,6-dimethoxy-phenyl]-cyclohexane-1,4-olol (A)] was run?
**A.** 21

**Q.** CCCCCCC(C)(C)c1cc(O)c(C2CCC(C)CC2)c(O)c1 (stereo not drawn) [O-1659, 2-(4-Methylcyclohexyl)-5-(1′,1′-dimethylheptyl)-resorcinol] was tested. Which CB1/CB2 (CB2 receptor) did it give?
**A.** 9

**Q.** CCCC(C)(C)c1ccc(-c2cc(C)ccc2C(C)C)c(O)c1 [O-1532, 3-1′,1′-Dimethylbutyl-6-(2-isopropyl-5-methyl-phenyl)-phenol] was tested. Which CB1/CB2 (CB2 receptor) did it give?
**A.** 8

**Q.** Which “fold reduction in affinity for CB2 receptors” value (CB2 receptor; compared to O-1657) does the source give for CCCCCCC(C)(C)c1cc(OC)c(C2CCCC(C)C2)c(OC)c1 (stereo not drawn) [O-1999, 5-(1,1-Dimethyl-heptyl)-1,3-dimethoxy-2-(3-methyl-cyclohexyl)-benzeno] here?
**A.** ~600 fold

**Q.** How did the Ki (CB1 receptor) turn out when C=C(C)[C@@H]1CCC(C)=CC1c1ccc(O)cc1O (single isomer, unassigned; (-)) [O-1848, (-)-4-(3-3,4-trans-p-menthadien-(1,8)-yl)-resorcinol] was run?
**A.** > 10 µM

**Q.** Which results are given for CCCCCCC(C)(C)c1cc(O)c(C2CCSCC2)c(O)c1 [O-1425]?
**A.** fold decrease in CB1 affinity (CB1 receptor; compared to O-1422): 14 fold; fold decrease in CB2 affinity (CB2 receptor; compared to O-1422): 8 fold; CB1/CB2 (CB2 receptor): 13

**Q.** For CCCCCCC(C)(C)c1cc(O)c(C2CCCCC2C)c(O)c1 (stereo not drawn) [O-1658, 2-(2-Methylcyclohexyl)-5-(1′,1′-dimethylheptyl)-resorcinol], which CB1/CB2 (CB2 receptor) is on record?
**A.** 16

**Q.** With COc1cc(C)cc(OC)c1C1CCCCC1 [O-2299, 2-Cyclohexyl-1,3-dimethoxy-5-methylbenzene] as the molecule, how does the Ki (CB1 receptor) read?
**A.** > 10 µM

**Q.** What about the Ki (CB2 receptor) of the same molecule?
**A.** > 10 µM

**Q.** How did the CB1/CB2 (CB2 receptor) turn out when CCCCCCC(C)(C)c1cc(OC)c(C2(O)CC(C)CC(O)C2)c(OC)c1 (stereo not drawn) [O-2121] was run?
**A.** 20

**Q.** Which CB1/CB2 (CB2 receptor) does the source give for CCCCCCC(C)(C)c1cc(O)c(C2=CCCCC2)c(O)c1 [O-1423] here?
**A.** 3

**Q.** Which CB1/CB2 (CB2 receptor) does the source give for CCCCCCC(C)(C)c1cc(OC)c(C2=CCC(=O)CC2)c(OC)c1 [O-2114, 4-[4-(1,1-Dimethyl-heptyl)-2,6-dimethoxy-phenyl]-cyclohex-3-enone] here?
**A.** 5

**Q.** Which Ki (CB1 receptor) does the source give for CCCCCCC(C)(C)c1cc(O)c(C2C3CC4CC(C3)CC2C4)c(O)c1 (stereo not drawn) [O-1660, 2-(2-Adamantanyl)-5-(1′,1′-di-methylheptyl)-resorcinol] here?
**A.** 0.0075 ± 0.0012 µM

**Q.** And the Ki (CB2 receptor)?
**A.** 0.00316 ± 0.00081 µM

**Q.** What about the CB1/CB2 (CB2 receptor) of the same molecule?
**A.** 2

**Q.** How did the CB1/CB2 (CB2 receptor) turn out when CCCCCCC(C)(C)c1cc(O)c(C2CCC(c3ccccc3)CC2)c(O)c1 (stereo not drawn) [O-1663, 2-(4-Phenylcyclohexyl)-5-(1′,1′-dimethylheptyl)-resorcinol] was run?
**A.** 16

**Q.** With CCCC(C)(C)c1cc(O)c(C2CCCC(C)C2)c(O)c1 (stereo not drawn) [O-1890, 2-(3-Methylcyclohexyl)-5-(1′,1′-dimethylbutyl)-resorcinol] as the molecule, how does the CB1/CB2 (CB2 receptor) read?
**A.** 7

**Q.** How did the CB1/CB2 (CB2 receptor) turn out when CCCCCCC(C)(C)c1cc(O)c([C@H]2CCCC(C)C2)c(O)c1 (stereo in doubt) [O-1826, 2-(3R-Methylcyclohexyl)-5-(1′,1′-dimethylheptyl)-resorcinol] was run?
**A.** 50

**Q.** How did the CB1/CB2 (CB2 receptor) turn out when CCCCCCC(C)(C)c1cc(OC)c(C23CCC(O)CC2O3)c(OC)c1 (stereo not drawn) [O-2122, 6-[4-(1,1-Dimethyl-heptyl)-2,6-dimethoxy-phenyl]-7-oxa-bicyclo[4 1 0]heptan-3-ol] was run?
**A.** 4

**Q.** CCCCCCC(C)(C)c1cc(O)c(C2CCCCC2)c(O)c1 [O-1422, Cyclohexyl-5-(1′,1′-dimethylheptyl)-resorcinol] was tested. Which CB1/CB2 (CB2 receptor) did it give?
**A.** 7

**Q.** Which CB1/CB2 (CB2 receptor) does the source give for CCCCCCC(C)(C)c1cc(OC)c(C2(O)CCCC(C)(C)C2)c(OC)c1 (stereo not drawn) [O-2068, 1-[4-(1,1-Dimethylheptyl)-2,6-dimethoxyphenyl]3,3-dimethyl-cyclohexanol] here?
**A.** 47

**Q.** Which CB1/CB2 (CB2 receptor) does the source give for CCCCCCC(C)(C)c1cc(OC)c(C2(O)CCC3(CC2)OCCO3)c(OC)c1 [O-2092, 8-[4-(1,1-Dimethylheptyl)-2,6-dimephenyl]-1,4-dioxaspiro[4,5]decan-] here?
**A.** 36

**Q.** CCCCCCC(C)(C)c1cc(OC)c(C2(O)CCCCCC2)c(OC)c1 [O-2091, 1-[4-(1,1-Dimethylheptyl)-2,6-dimephenyl]-cycloheptan-1-ol] was tested. Which CB1/CB2 (CB2 receptor) did it give?
**A.** 50

**Q.** How did the CB1/CB2 (CB2 receptor) turn out when CCCCCCC(C)(C)c1cc(OCC)c(C2(O)CCCC(C)C2)c(OCC)c1 (stereo not drawn) [O-2090, 1-[4-(1,1-Dimethylheptyl)-2,6-dietlphenyl]-3-methyl cyclohexane-1-ol] was run?
**A.** 10

**Q.** CCCCCCC(C)(C)c1cc(O)c(C2CCCC(C)C2)c(O)c1 (mixture of isomers) [O-1657, 2-(3-Methylcyclohexyl)-5-(1′,1′-dimethylheptyl)-resorcinol] was tested. Which CB1/CB2 (CB2 receptor) did it give?
**A.** 17

**Q.** COc1cc(C)cc(OC)c1C1(O)CCCCC1 [O-2298, 1-(2,6-Dimethoxy-4-methyl-phenyl)-cyclohexanol] was tested. Which Ki (CB1 receptor) did it give?
**A.** > 10 µM

**Q.** What about the Ki (CB2 receptor) of the same molecule?
**A.** > 10 µM

**Q.** CCCCCCC(C)(C)c1cc(OC)c(C2(O)CCCCC2)c(OC)c1 [O-2072, 1-[4-(1,1-Dimethylheptyl)-2,6-dimethoxyphenyl]-cyclohexanol] was tested. Which CB1/CB2 (CB2 receptor) did it give?
**A.** 55

**Q.** Which Ki (CB1 receptor) does the source give for C=C(C)[C@@H]1CCC(C)=CC1c1c(O)c(I)c(C)c(I)c1O (single isomer, unassigned; (-)) [O-1868, (-)-2-(3-3,4-trans-p-menthadien-(1,8)-yl)-1,6-dipdoorcinol] here?
**A.** > 10 µM

**Q.** Which CB1/CB2 (CB2 receptor) does the source give for CCCCCCC(C)(C)c1ccc(-c2cc(CO)ccc2C(C)C)c(O)c1 [O-1601, 3-1′,1′-Dimethylhepyl-6-(2-isopropyl-5-hydroxy-methylphenyl)-phenol] here?
**A.** 2

**Q.** Which Ki (CB1 receptor) does the source give for C=C(C)[C@@H]1CCC(C)=CC1c1c(O)cccc1O (single isomer, unassigned; (-)) [O-1847, (-)-2-(3-3,4-trans-p-menthadien-(1,8)-yl)-resorcinol] here?
**A.** > 10 µM

**Q.** What does the source list for CCCCCCC(C)(C)c1cc(O)c(C2CCCC(C)C2)c(O)c1 (single isomer, unassigned; isomer a) [O-1797A, 2-(3-Methylcyclohexyl)-5-(1′,1′-dimethylheptyl-resorcinol isomer A]?
**A.** Ki (CB2 receptor): 0.00044 ± 3e-05 µM; CB1/CB2 (CB2 receptor): 12

From patent US7285687B2 (priority 2002, dated 2007)
